Source: patent US11141413B2, “Method of treating renal cell carcinoma using N-(4-(6,7-dimethoxyquinolin-4-yloxy)phenyl)-N′-(4-fluorophenyl)cyclopropane-1,1-dicarboxamide, (2S)-hydroxybutanedioate” (Exelixis, Inc., priority 2016, dated 2021)

Key:
[1] = biological target: CYP3A4 (Homo sapiens, UniProt P08684); test: Clinical drug interaction: strong CYP3A4 inhibitor ketoconazole on cabozantinib; type: in vivo; parameters: from tissue; settings: with ketoconazole 400 mg daily for 27 days, healthy subjects
[2] = biological target: RET (Homo sapiens, UniProt P07949); test: In vitro biochemical and/or cellular kinase assays
Sequence of RET (P07949 29-1114): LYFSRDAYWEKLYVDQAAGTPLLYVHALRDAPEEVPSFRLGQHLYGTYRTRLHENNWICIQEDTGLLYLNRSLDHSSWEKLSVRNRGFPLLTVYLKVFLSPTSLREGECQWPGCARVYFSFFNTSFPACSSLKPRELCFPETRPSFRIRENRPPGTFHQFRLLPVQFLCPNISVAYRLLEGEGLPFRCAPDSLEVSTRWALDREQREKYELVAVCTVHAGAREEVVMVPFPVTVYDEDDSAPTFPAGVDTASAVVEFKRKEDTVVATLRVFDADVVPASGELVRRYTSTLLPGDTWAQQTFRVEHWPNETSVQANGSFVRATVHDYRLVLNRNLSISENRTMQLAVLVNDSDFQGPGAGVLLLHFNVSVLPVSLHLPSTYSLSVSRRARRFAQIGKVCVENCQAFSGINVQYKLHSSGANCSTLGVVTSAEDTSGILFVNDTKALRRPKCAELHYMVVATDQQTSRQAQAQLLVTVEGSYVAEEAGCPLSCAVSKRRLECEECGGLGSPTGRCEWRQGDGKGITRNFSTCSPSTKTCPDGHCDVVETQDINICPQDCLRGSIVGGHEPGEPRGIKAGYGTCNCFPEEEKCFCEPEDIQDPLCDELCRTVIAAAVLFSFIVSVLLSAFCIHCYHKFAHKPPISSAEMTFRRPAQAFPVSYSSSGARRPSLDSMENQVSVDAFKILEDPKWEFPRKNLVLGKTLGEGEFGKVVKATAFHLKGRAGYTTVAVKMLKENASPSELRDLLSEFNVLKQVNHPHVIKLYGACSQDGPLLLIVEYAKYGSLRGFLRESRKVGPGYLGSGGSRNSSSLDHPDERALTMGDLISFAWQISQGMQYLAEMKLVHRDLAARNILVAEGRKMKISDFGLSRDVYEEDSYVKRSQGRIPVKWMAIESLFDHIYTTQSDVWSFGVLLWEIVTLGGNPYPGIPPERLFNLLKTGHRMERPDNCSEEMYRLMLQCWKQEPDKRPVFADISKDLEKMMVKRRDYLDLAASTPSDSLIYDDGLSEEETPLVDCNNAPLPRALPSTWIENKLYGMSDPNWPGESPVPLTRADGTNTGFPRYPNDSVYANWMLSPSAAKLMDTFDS

[3] = biological target: AXL (Homo sapiens, UniProt P30530); test: In vitro biochemical and/or cellular kinase assays
Sequence of AXL (P30530 26-894): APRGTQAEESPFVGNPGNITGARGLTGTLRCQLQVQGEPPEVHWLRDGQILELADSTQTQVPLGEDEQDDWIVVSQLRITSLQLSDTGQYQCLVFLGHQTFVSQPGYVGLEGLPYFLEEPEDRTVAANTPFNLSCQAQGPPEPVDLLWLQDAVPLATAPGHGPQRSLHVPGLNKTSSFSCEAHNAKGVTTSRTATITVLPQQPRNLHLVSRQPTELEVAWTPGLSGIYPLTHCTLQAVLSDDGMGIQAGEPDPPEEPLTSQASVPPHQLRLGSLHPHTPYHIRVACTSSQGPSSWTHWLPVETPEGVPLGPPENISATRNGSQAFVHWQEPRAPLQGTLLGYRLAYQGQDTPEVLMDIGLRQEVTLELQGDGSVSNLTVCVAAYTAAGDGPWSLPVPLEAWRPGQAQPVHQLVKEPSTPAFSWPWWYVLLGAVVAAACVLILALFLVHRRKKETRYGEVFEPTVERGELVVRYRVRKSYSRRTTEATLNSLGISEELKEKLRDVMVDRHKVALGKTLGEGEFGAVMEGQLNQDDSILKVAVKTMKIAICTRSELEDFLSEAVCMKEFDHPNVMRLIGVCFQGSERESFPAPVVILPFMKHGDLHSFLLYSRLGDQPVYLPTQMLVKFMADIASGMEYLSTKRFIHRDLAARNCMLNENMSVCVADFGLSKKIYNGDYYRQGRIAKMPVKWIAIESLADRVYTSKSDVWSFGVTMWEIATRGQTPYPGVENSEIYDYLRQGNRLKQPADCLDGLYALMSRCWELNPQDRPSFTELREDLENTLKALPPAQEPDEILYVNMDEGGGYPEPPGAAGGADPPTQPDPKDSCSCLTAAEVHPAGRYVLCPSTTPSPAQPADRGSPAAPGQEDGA

[4] = Population pharmacokinetic (PopPK) model (RCC patients and healthy volunteers); type: in vivo, human
Procedure: The PopPK model was developed using nonlinear mixed effects modeling methodology (NONMEM v7.3) that incorporated 1650 measurable PK concentrations from 345 subjects (Table 10.1).
Covariates were evaluated for effects on apparent plasma clearance (CL/F) and apparent volume of distribution of the central compartment (VF) (Table 10.2).
In FIG. 10.1: • F1=fraction of dose in the first depot; • F2=fraction of dose in the second depot; • Ka=depot 1 absorption rate constant • Ka2=depot 2 absorption rate constant; • ALAG1=depot 1 absorption lag time; • ALAG2=depot 2 absorption lag time • Vc/F=apparent volume of distribution (central compartment); • Vp/F=apparent volume of distribution (peripheral compartment); • Q/F=apparent flow between plasma (central) and peripheral compartments; • CL/F=apparent plasma clearance

[5] = tested on: human plasma; test: Plasma protein binding
[6] = tested on: pregnant rats; test: Embryo-fetal development study in pregnant rats
[7] = biological target: VEGFR-3 (Homo sapiens, UniProt P35916); test: In vitro biochemical and/or cellular kinase assays
[8] = biological target: FLT-3 (Homo sapiens, UniProt P36888); test: In vitro biochemical and/or cellular kinase assays
Sequence of FLT-3 (P36888 27-993): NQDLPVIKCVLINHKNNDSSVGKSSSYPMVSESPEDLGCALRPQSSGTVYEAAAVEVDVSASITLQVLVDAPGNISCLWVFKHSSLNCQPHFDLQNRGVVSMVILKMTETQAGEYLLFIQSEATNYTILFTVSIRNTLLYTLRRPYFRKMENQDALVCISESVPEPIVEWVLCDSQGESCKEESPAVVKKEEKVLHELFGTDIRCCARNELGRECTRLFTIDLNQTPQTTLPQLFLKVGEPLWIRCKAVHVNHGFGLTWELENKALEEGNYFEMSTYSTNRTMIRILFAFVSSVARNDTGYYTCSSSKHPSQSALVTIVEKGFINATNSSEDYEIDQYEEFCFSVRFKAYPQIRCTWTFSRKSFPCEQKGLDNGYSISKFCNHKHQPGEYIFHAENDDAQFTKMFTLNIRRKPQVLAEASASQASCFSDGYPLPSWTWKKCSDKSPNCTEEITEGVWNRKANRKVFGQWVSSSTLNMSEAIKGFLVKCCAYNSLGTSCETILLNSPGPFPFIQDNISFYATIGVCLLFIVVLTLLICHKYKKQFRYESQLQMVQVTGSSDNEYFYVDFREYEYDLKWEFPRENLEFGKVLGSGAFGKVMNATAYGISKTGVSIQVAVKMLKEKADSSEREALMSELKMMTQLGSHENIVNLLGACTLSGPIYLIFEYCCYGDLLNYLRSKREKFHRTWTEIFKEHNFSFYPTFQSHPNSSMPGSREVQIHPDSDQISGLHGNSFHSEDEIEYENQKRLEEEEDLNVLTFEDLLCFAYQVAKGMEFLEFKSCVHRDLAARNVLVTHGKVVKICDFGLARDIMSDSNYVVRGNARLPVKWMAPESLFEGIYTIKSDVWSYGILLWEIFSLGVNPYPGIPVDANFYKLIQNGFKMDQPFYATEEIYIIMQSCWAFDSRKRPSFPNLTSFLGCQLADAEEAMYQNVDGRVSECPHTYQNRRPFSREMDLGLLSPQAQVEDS

[9] = biological target: TRKB (Homo sapiens, UniProt Q16620); test: In vitro biochemical and/or cellular kinase assays
Sequence of TRKB (Q16620 32-822): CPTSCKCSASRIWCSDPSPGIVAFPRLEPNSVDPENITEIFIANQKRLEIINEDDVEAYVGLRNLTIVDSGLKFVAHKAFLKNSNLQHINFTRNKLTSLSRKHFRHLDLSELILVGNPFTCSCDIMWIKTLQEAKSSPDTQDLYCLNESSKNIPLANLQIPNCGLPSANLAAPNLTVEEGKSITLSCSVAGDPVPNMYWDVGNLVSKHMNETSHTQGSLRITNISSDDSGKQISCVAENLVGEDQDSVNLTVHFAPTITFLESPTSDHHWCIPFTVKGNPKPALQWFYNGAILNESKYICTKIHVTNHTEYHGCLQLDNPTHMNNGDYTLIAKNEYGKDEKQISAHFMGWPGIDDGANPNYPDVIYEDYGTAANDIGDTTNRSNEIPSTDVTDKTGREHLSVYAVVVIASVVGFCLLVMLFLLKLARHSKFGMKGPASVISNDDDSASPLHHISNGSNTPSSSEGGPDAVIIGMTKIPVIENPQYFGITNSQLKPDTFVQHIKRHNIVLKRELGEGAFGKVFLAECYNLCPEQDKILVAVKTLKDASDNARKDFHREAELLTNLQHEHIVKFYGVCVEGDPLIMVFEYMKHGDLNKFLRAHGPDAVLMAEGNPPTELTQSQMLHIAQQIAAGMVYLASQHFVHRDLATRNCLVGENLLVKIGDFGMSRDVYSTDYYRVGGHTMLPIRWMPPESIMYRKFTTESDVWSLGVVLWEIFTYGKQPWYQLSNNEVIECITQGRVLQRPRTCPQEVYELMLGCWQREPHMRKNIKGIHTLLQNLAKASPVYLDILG

[10] = Pharmacokinetics in patients with hepatic impairment; type: in vivo, human
Text: Patients with severe hepatic impairment have not been studied.

[11] = biological target: MER (Homo sapiens, UniProt Q12866); test: In vitro biochemical and/or cellular kinase assays
Sequence of MER (Q12866 21-999): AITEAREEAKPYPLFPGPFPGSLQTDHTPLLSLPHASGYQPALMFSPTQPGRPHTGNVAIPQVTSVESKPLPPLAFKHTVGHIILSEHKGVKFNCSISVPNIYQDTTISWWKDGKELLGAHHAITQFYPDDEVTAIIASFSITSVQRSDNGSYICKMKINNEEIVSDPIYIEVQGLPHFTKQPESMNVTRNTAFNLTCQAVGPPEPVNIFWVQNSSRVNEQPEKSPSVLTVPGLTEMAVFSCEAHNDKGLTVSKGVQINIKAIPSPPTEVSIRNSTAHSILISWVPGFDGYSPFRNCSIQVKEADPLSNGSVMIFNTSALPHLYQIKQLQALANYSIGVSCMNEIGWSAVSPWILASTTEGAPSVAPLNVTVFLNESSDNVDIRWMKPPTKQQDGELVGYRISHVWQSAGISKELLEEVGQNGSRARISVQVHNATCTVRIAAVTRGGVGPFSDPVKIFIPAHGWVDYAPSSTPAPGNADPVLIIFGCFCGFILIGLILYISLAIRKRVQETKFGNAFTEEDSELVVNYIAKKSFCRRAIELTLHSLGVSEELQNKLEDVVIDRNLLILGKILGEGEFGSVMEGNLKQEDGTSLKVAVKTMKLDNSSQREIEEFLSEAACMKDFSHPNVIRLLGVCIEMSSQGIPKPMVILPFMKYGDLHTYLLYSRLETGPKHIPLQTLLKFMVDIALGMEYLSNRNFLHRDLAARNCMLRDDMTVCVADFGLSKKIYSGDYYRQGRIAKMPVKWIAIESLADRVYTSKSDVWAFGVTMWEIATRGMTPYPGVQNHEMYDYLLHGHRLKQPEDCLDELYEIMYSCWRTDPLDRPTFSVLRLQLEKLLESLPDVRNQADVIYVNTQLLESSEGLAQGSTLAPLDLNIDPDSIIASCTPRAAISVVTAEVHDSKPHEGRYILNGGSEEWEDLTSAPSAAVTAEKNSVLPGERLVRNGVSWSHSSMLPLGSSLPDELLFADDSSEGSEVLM

[12] = Clinical pharmacokinetics of cabozantinib (absorption, distribution, elimination); type: in vivo, human
Text: […]; steady state was achieved by Day 15.

[13] = biological target: CYP2B6 (Homo sapiens, UniProt P20813); test: Metabolic pathways in vitro: effect of CYP inhibition on cabozantinib metabolite formation; type: in vitro ADME
[14] = final PopPK model parameter estimate
[15] = final PopPK model parameter estimate, RCC patients and healthy volunteers

**Q.** Which “Increase in single-dose plasma cabozantinib exposure (AUC0-inf)” value [1] does the source give for `COc1cc2nccc(Oc3ccc(NC(=O)C4(C(=O)Nc5ccc(F)cc5)CC4)cc3)c2cc1OC` [cabozantinib] here?
**A.** Its value is 38%.

**Q.** What about the “Inhibition of tyrosine kinase activity” value [2] of the same molecule?
**A.** Its value is “inhibits”.

**Q.** And the “Inhibition of tyrosine kinase activity” value [3]?
**A.** Its value is “inhibits”.

**Q.** What about the “Predicted steady-state average concentration” value ([4]; 20 mg dose level) of the same molecule?
**A.** The value was 375 ng/mL.

**Q.** What about the “Predicted steady-state average concentration” value ([4]; 40 mg dose level) of the same molecule?
**A.** The value was 750 ng/mL.

**Q.** What about the “Predicted steady-state average concentration” value ([4]; 60 mg dose level) of the same molecule?
**A.** The value was 1125 ng/mL.

**Q.** And the “CL/F (oral clearance), PopPK estimate” value ([4]; White male)?
**A.** Its value is 2.23 L/h.

**Q.** And the “Vc/F, PopPK estimate” value ([4]; White male)?
**A.** The value was 81.5 L.

**Q.** And the “ALAG1 (depot 1 absorption lag time)” value [4, 14]?
**A.** The value was 0.459 h.

**Q.** And the “ALAG2 (depot 2 absorption lag time)” value [4, 14]?
**A.** The value was 16.8 h.

**Q.** And the “Q/F (apparent flow between plasma (central) and peripheral compartments)” value [4, 14]?
**A.** The value was 14.2 L/h.

**Q.** What about the “Vp/F (apparent volume of distribution, peripheral compartment)” value [4, 14] of the same molecule?
**A.** The value was 213 L.

**Q.** What about the “Ka2 (depot 2 absorption rate constant)” value [4, 15] of the same molecule?
**A.** Its value is 0.102 h⁻¹.

**Q.** And the “Ka (depot 1 absorption rate constant)” value [4, 15]?
**A.** Its value is 0.568 h⁻¹.

**Q.** And the “CL/F (apparent plasma clearance)” value ([4]; final PopPK model parameter estimate, White male)?
**A.** Its value is 2.23 L/h.

**Q.** What about the “Inter-individual variability of CL/F” value ([4]; human, in vivo) of the same molecule?
**A.** Its value is 46 % CV.

**Q.** And the “Lower CL/F in Asian vs White subjects” value ([4]; human, in vivo)?
**A.** Its value is 27%.

**Q.** And the “Lower CL/F in female vs male subjects” value ([4]; human, in vivo)?
**A.** The value was 21%.

**Q.** What about the Vd/F ([4]; human, plasma, oral, final PopPK model parameter estimate, White male, read-out: Vc/F (apparent volume of distribution, central compartment)) of the same molecule?
**A.** The Vd/F was 81.5 L.

**Q.** And the Vd ([4]; human, plasma, oral, subject, read-out: Terminal phase volume of distribution, PopPK estimate)?
**A.** Its Vd is 319 L.

**Q.** What about the “Protein bound in human plasma” value [5] of the same molecule?
**A.** Its value is ≥ 99.7%.

**Q.** And the “Dose causing increased embryo-fetal lethality compared to controls” value ([6]; daily oral administration throughout organogenesis)?
**A.** Its value is 0.03 mg/kg.

**Q.** And the “Dose with delayed ossification and skeletal variations” value ([6]; female, rat, in vivo, 0.1 mg/kg/day)?
**A.** The value was 0.1 mg/kg/day.

**Q.** What about the “Inhibition of tyrosine kinase activity” value [7] of the same molecule?
**A.** Its value is “inhibits”.

**Q.** And the “Inhibition of tyrosine kinase activity” value [8]?
**A.** The value was “inhibits”.

**Q.** And the “Inhibition of tyrosine kinase activity” value [9]?
**A.** The value was “inhibits”.

**Q.** What about the “Exposure in patients with mild to moderate hepatic impairment” value ([10]; human, in vivo) of the same molecule?
**A.** The value was “Increased exposure”.

**Q.** What about the “Increase in exposure (AUC0-inf)” value ([10]; mild (C-P A) hepatic impairment) of the same molecule?
**A.** Its value is 81%.

**Q.** And the “Increase in exposure (AUC0-inf)” value ([10]; moderate (C-P B) hepatic impairment)?
**A.** Its value is 63%.

**Q.** And the “Inhibition of tyrosine kinase activity” value [11]?
**A.** The value was “inhibits”.

**Q.** What about the “Effect of age, sex, race, mild to moderate renal impairment on pharmacokinetics” value ([12]; age 32-86 years, eGFR ≥30 mL/min/1.73 m^2) of the same molecule?
**A.** Its value is “did not result in a clinically relevant difference”.

**Q.** What about the “Clearance (CL/F) at steady-state” value ([12]; human, in vivo) of the same molecule?
**A.** Its value is 2.2 L/h.

**Q.** What about the Predicted terminal half-life ([12]; human, in vivo) of the same molecule?
**A.** Its Predicted terminal half-life is “approximately 99 hours”.

**Q.** What about the Tmax ([12]; human, plasma, oral administration, read-out: Median time to peak plasma concentration (Tmax)) of the same molecule?
**A.** Its Tmax is 2 to 3 h.

**Q.** What about the “Steady state achieved by” value ([12]; repeat daily dosing at 140 mg) of the same molecule?
**A.** The value was ≤ 15 days.

**Q.** What about the “Effect of inhibition of CYP2B6 on cabozantinib metabolite formation” value [13] of the same molecule?
**A.** Its value is “no effect”.
